Experimental data: patent publication US4528190A, “GRF Analogs IV” (The Salk Institute For Biological Studies, priority 1984, dated 1985)
Square brackets hold non-standard residues; d marks the D form. Ends that are not written are not given here. Peptide text beside a SMILES is read from it. Nle = CCCC[C@H](N)C(=O)O

Tested on: cells of rat pituitary glands
Assay: in vitro GH release from cultured rat pituitary cells, compared side by side with synthetic hpGRF(1-40)-OH as standard
Assay type: cell-based
Conditions: GH release relative to standard hGRF(1-40)-OH = 100%; equimolar concentrations; incubation 3 to 4 hours; immunoreactive GH by radioimmunoassay
Method: To determine the relative effectiveness of certain representative synthetic peptides to promote the release of growth hormone, in vitro assays are carried out using synthetic hpGRF(1-40)-OH as a standard in side-by-side comparison with equimolar concentrations of the representative analogs which have been synthesized. Cultures are used which include cells of rat pituitary glands removed some three to five days previously. Such cultures are considered optimal for the secretion of growth hormone and are used for the comparative testing, in the general manner described in Vale et al. Endocrinology, 91, 562-572 (1972) and as more particularly described in Vale et al. Endocrinology, 112, 1553-1555 (1983). Incubation with the substance to be tested is carried out for 3 to 4 hours, and aliquots of the culture medium are removed and processed to measure their contents in immunoreactive GH(ir GH) by a well-characterized radioimmunoassay.

| Molecule | Comparison % |
| --- | --- |
| CCCC[C@H](NC(=O)[C@@H](NC(=O)[C@H](CCC(=O)O)NC(=O)[C@H](Cc1c[nH]cn1)NC(=O)[C@H](CC(C)C)NC(=O)[C@H](CC(C)C)NC(=O)[C@H](CCCCN)NC(=O)[C@H](CCCNC(=N)N)NC(=O)[C@H](C)NC(=O)[C@H](Cc1ccc(O)cc1)NC(=O)[C@H](CC(C)C)NC(=O)[C@H](CCC(N)=O)NC(=O)CNC(=O)[C@@H](CC(C)C)NC(=O)[C@@H](NC(=O)[C@H](CCCNC(=N)N)NC(=O)[C@H](CCCNC(=N)N)NC(=O)[C@H](Cc1ccc(O)cc1)NC(=O)[C@H](CO)NC(=O)[C@H](CO)NC(=O)[C@@H](NC(=O)[C@H](Cc1ccccc1)NC(=O)[C@@H](NC(=O)[C@H](C)NC(=O)[C@H](CC(=O)O)NC(=O)[C@H](C)NC(=O)[C@@H](N)Cc1c[nH]cn1)[C@@H](C)CC)[C@@H](C)O)[C@@H](C)CC)[C@@H](C)CC)C(=O)N[C@@H](CC(N)=O)C(=O)N[C@@H](CCCNC(=N)N)C(N)=O [[D-Leu^14, Nle^27]-rGRF(1-29)-NH2] (H-HADAIFTSSYRRI[dL]GQLYARKLLHEI[Nle]NR-NH2) | 120% |
| CCCC[C@H](NC(=O)[C@@H](NC(=O)[C@H](CCC(=O)O)NC(=O)[C@H](Cc1c[nH]cn1)NC(=O)[C@H](CC(C)C)NC(=O)[C@H](CC(C)C)NC(=O)[C@H](CCCCN)NC(=O)[C@H](CCCNC(=N)N)NC(=O)[C@H](C)NC(=O)[C@H](Cc1ccc(O)cc1)NC(=O)[C@H](CC(C)C)NC(=O)[C@H](CCC(N)=O)NC(=O)CNC(=O)[C@H](CC(C)C)NC(=O)[C@@H](NC(=O)[C@H](CCCNC(=N)N)NC(=O)[C@H](CCCNC(=N)N)NC(=O)[C@H](Cc1ccc(O)cc1)NC(=O)[C@H](CO)NC(=O)[C@H](CO)NC(=O)[C@@H](NC(=O)[C@H](Cc1ccccc1)NC(=O)[C@@H](NC(=O)[C@H](C)NC(=O)[C@H](CC(=O)O)NC(=O)[C@H](C)NC(=O)[C@@H](N)Cc1c[nH]cn1)[C@@H](C)CC)[C@@H](C)O)[C@@H](C)CC)[C@@H](C)CC)C(=O)N[C@@H](CC(N)=O)C(=O)N[C@H](CCCNC(=N)N)C(N)=O [[Nle^27, D-Arg^29]-rGRF(1-29)-NH2] (H-HADAIFTSSYRRILGQLYARKLLHEI[Nle]N[dR]-NH2) | 386% |
| hGRF(1-40)-OH (YADAIFTNSYRKVLGQLSARKLLQDIMSRQQGESNQERGA-OH; UniProt P01286 32-71, looked up, fragment) [synthetic human pancreatic (tumor) GH releasing factor, residues 1-40, free acid; standard for the tests, reference compound] | 100% |
